# Results reported in article PMC4365270 (Cancer Chemotherapy and Pharmacology, 2015).
# “Also recorded” adds a separate entry of the source. Read-outs that look alike come from different tables or passages of the source.
# Experiments:
# [1] = Safety/tolerability: AE, ADR, DLT in patients with advanced cancer; type: in vivo
# Source text: This was a multicenter, uncontrolled, open-label, dose-escalation study on DEBIO1143 in patients with advanced cancer. It employed an accelerated titration design for dose escalation with 100 % dose increments in consecutively enrolled single patients until drug-related grade-2 toxicity was observed during the initial treatment cycle (until day 28 or day 21 as per protocol amendment). If this was the case, cohort size was expanded to three patients and dosing increment was reduced to 50 % of the last dose. Dose escalation was to be stopped at the MTD which was considered exceeded if at any dose level more than one patient experienced dose-limiting toxicity (DLT) during the first treatment cycle. DLT was defined as any of the following: (a) non-hematological toxicity of grade ≥3 (excluding nausea, vomiting, diarrhea unless not controlled by maximal antiemetic/diarrheal therapy for >24 h); (b) anemia or neutropenia of grade ≥3 or thrombocytopenia of grade 4 or any grade if associated with clinically significant bleeding; (c) any AE resulting in dose delay or reduction; (d) any toxicity considered dose-limiting by the investigator. If only one out of the three patients of a cohort experienced drug-related DLT, the cohort was expanded by another three patients to be treated at the same dose level. If none of these additional patients experienced DLT, the dose escalation by 50 %, rounded down to the nearest capsule strength combination, continued in the next cohort of three patients.
# The incidence of AE, ADR, and DLT was recorded at all scheduled visits (on days 1, 15, and 28 of each cycle and additionally on days 5, 8, and 22 of cycle 1) and graded according to the Common Terminology Criteria for Adverse Events, version 4.0 of the National Cancer Institute. Moreover, safety laboratory, 12-lead ECG, vital sign measurements, and physical examinations were performed.
# [2] = test system: caspase-3 generated cytokeratin-18 fragments (M30); test: Plasma M30 ELISA; type: in vivo, human; conditions: day 5, p < 0.0033
# Method: cIAP-1 levels were measured in tumor tissue and surrogate tissue as available. Peripheral blood mononuclear cells (PBMCs) were analyzed for DEBIO1143-induced cIAP-1 degradation. Plasma native cytokeratin-18 ([…]) or caspase-3 generated cytokeratin-18 fragments (M30), interleukin 8 (IL8), chemokine ligand 2 (CCL2, MCP1), and tumor necrosis factor α (TNFα) were measured by ELISA as markers of epithelial cell death and inflammation on days 1 (predose, 1, 3, 6, and 12 h postdose), 2, and 5. […] For the detection of cIAP-1 in paraffin-embedded human tissue, a validated immunohistochemical (IHC) assay was used. DEBIO1143-induced cIAP-1 degradation was measured in PBMCs using Western blot. Plasma biomarkers were measured through commercial ELISAs. All laboratory analyses were performed by MPI Research, Inc. (PK) and Mosaic Laboratory, LLC (PD).
# [3] = test system: advanced solid tumors and lymphomas; test: Antitumor activity (RECIST 1.1 / lymphoma criteria); type: in vivo, human
# Method: Tumor evaluations were scheduled before therapy and after every other cycle of therapy. Changes were determined by physical examination, tumor markers, or standard imaging techniques. […] Read-outs were complete response (CR), partial response (PR), stable disease (SD), and disease progression (DP).
# [4] = parameters: method as in PMID 23813446; conditions: mice; cited from earlier work
# [5] = parameters: method as in PMID 23813446; conditions: rats; cited from earlier work
# [6] = parameters: method as in PMID 23813446; conditions: dogs; cited from earlier work
# xenograft tumors = conditions: cited from earlier work
smiles,measurement,setting,value
CN[C@@H](C)C(=O)N[C@H]1CN(C(=O)CC(C)C)CC[C@H]2CC[C@@H](C(=O)NC(c3ccccc3)c3ccccc3)N2C1=O [DEBIO1143],Deaths during the study,[1]; N=31,No patient died
same,Dose dependence of AEs,"[1]; human, in vivo",neither incidence nor severity increased with dose
same,Dose-limiting toxicity observed,"[1]; human, in vivo",grade 3 reversible ALT elevation
same,Grade 4–5 treatment-related AE,"[1]; human, in vivo",no grade 4–5 treatment-related AE
same,Number of AEs,"[1]; human, in vivo",242
same,Number of SAEs,"[1]; human, in vivo",13
same,Number of dose-limiting toxicities (DLT),"[1]; human, in vivo",one
same,SAEs related to study drug,"[1]; human, in vivo",none of which was considered related to study drug
same,"Safety laboratory, ECG, vital signs, body weight, ECOG performance status","[1]; human, in vivo",No clinically meaningful trends
same,Maximum tolerated dose (MTD),"[1]; oral, days 1–5 every 2 or 3 weeks, up to 900 mg",No MTD was found; also recorded: not reached
same,Plasma level of M30,[2],increased significantly
same,Complete or partial response,[3]; 31 patients,No patient had a complete or partial response
same,"Duration of stable disease, range",[3]; five patients,85 to 197 days
same,Median duration of stable disease,[3]; five patients,93 days
same,Reduction in target lesion dimensions,"[3]; one patient with metastatic melanoma, 400 mg/day",11%
same,Oral bioavailability,[4],good
same,Oral bioavailability,[5],good
same,Oral bioavailability,[6],good
same,Apoptosis,xenograft tumors,apoptosis in xenograft tumors
